From US20230414624A1, “METHODS OF TREATING NEUROLOGICAL VENTILATORY INSUFFICIENCY” (Enalare Therapeutics Inc., priority 2022, published 2023)
“Also recorded” adds a separate entry of the source.

Legend:
premature lambs = test: Premature (preterm) lamb proof of concept study: spontaneous ventilation under IV bolus and ascending continuous infusion; assay type: in vivo
Description: One set of twin lambs were to be delivered premature via cesarian section, stabilized and managed for four hours. […] The protocol was reviewed and approved by the Institutional Animal Care and Use Committee at Thomas D. Morris, Inc., where the study was conducted.
During delivery and with local anesthesia (1 ml; 2% Lidocaine), lambs were instrumented with an endotracheal tube as well as carotid arterial and jugular catheters through an incision at approximately the midpoint of the anterior neck. Once the umbilical cord was tied and severed, lambs were transferred to a heated surgical bed under a radiant warming lamb. The arterial catheter was connected to a transducer for pressure monitoring and the venous catheter was connected to a pump for continuous infusion of 5% dextrose in water (D5W) at a rate of 6 ml/kg/hr. A reaction thermistor was inserted to monitor temperature and lambs were covered with plastic to minimize evaporative heat loss. The airway was suctioned and Surfactant (Curosurf, 2.5 ml/kg) was administered intratracheally over a period of 5 minutes in 4 positions (Trendelenburg, reverse Trendelenburg, and left and right lateral decubitus positions). Lambs were to receive four mechanical breaths for lung recruitment and then started on CPAP initiated at 5 cmH2O and continuously optimized to effect (4-8 cmH2O) along with fraction of inspired oxygen (FIO2) over the course of the study.
The formulation used was a 10 mg/mL aqueous solution (adjusted for the hydrogen sulfate salt and impurities) with a citric acid buffer and a pH of 3.2. The infusion was with ascending dose hourly, while the second lamb was to serve as sham control. […] The four, hourly doses are described in table 1.
For pulmonary function assessments, a pneumotach was placed between the endotracheal tube and the CPAP connector. At least ten representative breaths free of movement of atypical breathing artifact were recorded using a pulmonary function system designed for neonatal research (NewLifeBox-R, Advanced Life Diagnostics, Weener, Germany). For each period the rate, tidal volumes and minute ventilation was derived from an average of the ten breaths. To maintain a stable plain of anesthesia, repeat doses of fentanyl (1 μg IM) were given as needed throughout the protocol based on blood pressure response to stimulation. At the conclusion of the study, animals were sacrificed and tissue sampled harvested for subsequent histopathology.

adult humans = conditions: 0.4 mg/kg/hr infusion; cited from earlier work
[1] = 3 mg/kg IV bolus, animals; cited from earlier work
[2] = test lamb, ascending hourly infusion

CCCNc1nc(NCCC)nc(N(C)OC)n1 [Compound 1, N-(4,6-Bis-n-propylamino-[1,3,5]triazin-2-yl)-O,N-dimethyl-hydroxylamine]
Spontaneous breathing, both lambs (premature lambs; after bolus administration of a loading dose): immediately resulted in spontaneous breathing in both lambs
Respiratory rate (RR), course over the four hours (premature lambs; in vivo): gradually decreased
Spontaneous breathing after IV bolus (premature lambs; sham lamb 4.1 kg, no spontaneous breathing before, single IV bolus 2.4 mg/kg, no infusion): the lamb began breathing spontaneously. After several minutes, the spontaneous breathing efforts abated
Spontaneous breathing after IV bolus loading dose (premature lambs; test lamb 3.2 kg, no spontaneous breathing before, IV bolus 3.1 mg/kg during 0.4 mg/kg/hr infusion, then continuous infusion for four hours): the lamb began breathing spontaneously and never again required manual intervention
Spontaneous minute ventilation (MV) at baseline and for 10 minutes after start of infusion (premature lambs; test lamb, 0.4 mg/kg/hr infusion without loading dose): zero
Spontaneous minute ventilation (MV) immediately following the bolus loading dose (premature lambs; test lamb, IV bolus 3.1 mg/kg): approximately 1,100 mL/min
End tidal carbon dioxide level (EtCO2), course over the four hours (premature lambs; [2]): concomitant decrease; also recorded: progressive decline
Heart rate and mean arterial pressure through the four hours (premature lambs; [2]): stable
Tidal volume, course over the four hours (premature lambs; [2]): consistent rise
Minute ventilation (MV), course over the four hours (premature lambs; test lamb, ascending hourly infusion 0.4, 1.1, 2.0, 12 mg/kg/hr): continued to rise
Minute ventilation (MV), all but the first three measurements of spontaneous breathing (premature lambs; test lamb, ascending hourly infusion, 1,344 mL/min = maximal MV of literature mechanical ventilation): exceeded 1,344 mL/min
Tidal volume per kg of body weight versus lung protective range (premature lambs; test lamb, ascending hourly infusion, range 4 to 6 mL/kg): at least as deep and ultimately surpassed the lung protective range of 4 to 6 mL/kg; also recorded: always within or above the noted target tidal volume range
Respiratory rate (premature lambs; test lamb, whole study period, normal newborn lamb 36 to 48): ≥ 70 breaths per minute
Efficacy of the low dose in adult humans (adult humans): minimal effect; also recorded: limited efficacy; also recorded: humans; minimal efficacy
Plasma levels after bolus intravenous injection [1]: transient therapeutic plasma levels
